Numbered stars: 1 amine (or outer) side, 2 acyl side, 3 side chain; on linkers, the order of the positions; unused ones are H or OH. Bridge positions count the residues as written; N and C are the ends. Square brackets hold non-standard residues; d marks the D form. Peptide text beside a SMILES is read from it. * marks the point of attachment. Trp(7-aza,1-CH2COOH) = N[C@@H](Cc1cn(CC(=O)O)c2ncccc12)C(=O)O; Trp(βS-Me,7-OMe) = COc1cccc2c([C@H](C)[C@H](N)C(=O)O)c[nH]c12; Trp(1-CH2COOH) = N[C@@H](Cc1cn(CC(=O)O)c2ccccc12)C(=O)O; Phe(4-SO2NH2) = N[C@@H](Cc1ccc(S(N)(=O)=O)cc1)C(=O)O; Trp(7-CN) = N#Cc1cccc2c(C[C@H](N)C(=O)O)c[nH]c12; Trp(7-Cl) = N[C@@H](Cc1c[nH]c2c(Cl)cccc12)C(=O)O; Phe(4-CONH2) = NC(=O)c1ccc(C[C@H](N)C(=O)O)cc1; Phe(4-COOH) = N[C@@H](Cc1ccc(C(=O)O)cc1)C(=O)O; X30 = O=C([C@@H](N[*:1])[C@H](O)c1ccncc1)[*:2]; 4Pal(3S-Me) = C[C@@H](c1ccncc1)[C@H](N)C(=O)O; Phe(4-CH2NH2) = NCc1ccc(C[C@H](N)C(=O)O)cc1; 3Pal(6-OMe) = COc1ccc(C[C@H](N)C(=O)O)cn1; Pip(5R-OH) = O=C(O)[C@@H]1CC[C@@H](O)CN1; X1 = O=C([C@@H]1CC[C@H](N[*:1])C1)[*:2]; AEF = NCCOc1ccc(C[C@H](N)C(=O)O)cc1; Pip(4-aza) = O=C(O)[C@@H]1CNCCN1; 4Pal = N[C@@H](Cc1ccncc1)C(=O)O; Ethyl(2-NMe3+) = C[N+](C)(C)CC*; NMeE = CN[C@@H](CCC(=O)O)C(=O)O; dHyp = O=C(O)[C@H]1C[C@H](O)CN1; NMeS = CN[C@@H](CO)C(=O)O; αMeS = C[C@](N)(CO)C(=O)O; Carboxymethyl = O=C(O)C*; Nle = CCCC[C@H](N)C(=O)O; X37 = c1cncc(N*)c1; Sar = CNCC(=O)O
Assays:
[1] = molecular target: T1, TNFα-induced NF-κB signal transduction pathway (TNFR1 signaling) in THP-1 cells (Homo sapiens, UniProt P19438); test: THP-1 Lucia NF-κB reporter cell assay, inhibition of TNFα-induced NF-κB signaling; type: cell-based; conditions: THP-1 NF-κB Lucia reporter cells, 10 ng/mL TNFα, 16-18 h, secreted luciferase; read-out: THP-1 IC50
T1 sequence (P19438 30-455): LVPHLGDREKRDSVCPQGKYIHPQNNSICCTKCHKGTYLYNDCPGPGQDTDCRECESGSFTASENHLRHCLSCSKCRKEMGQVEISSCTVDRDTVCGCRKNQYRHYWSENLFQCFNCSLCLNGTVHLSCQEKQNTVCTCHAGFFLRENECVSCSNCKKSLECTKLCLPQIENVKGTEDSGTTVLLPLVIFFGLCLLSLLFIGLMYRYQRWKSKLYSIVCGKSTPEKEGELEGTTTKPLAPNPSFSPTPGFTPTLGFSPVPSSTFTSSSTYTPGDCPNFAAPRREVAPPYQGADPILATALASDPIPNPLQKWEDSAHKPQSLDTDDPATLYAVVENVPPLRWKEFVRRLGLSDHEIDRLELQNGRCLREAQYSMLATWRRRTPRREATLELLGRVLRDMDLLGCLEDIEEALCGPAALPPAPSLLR
Method in brief: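 Macrocyclic peptides were preincubated 1 h at 37 °C with THP-1 NF-κB-Lucia reporter cells (20,000 cells/well) in antibiotic-free RPMI 1640/10% FBS, then stimulated with 10 ng/mL human TNFα overnight (16-18 h). Secreted luciferase in supernatant was read by luminescence; IC50 from 4-parameter logistic fits.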

[2] = molecular target: T2, human soluble TNFR1 (sTNFR1) (Homo sapiens, UniProt P19438); test: Human sTNFR1-peptide displacement assay (LanthaScreen Eu TR-FRET binding assay)
T2 construct: made in house; host or cells: Sf21 (baculovirus)
T2 sequence (P19438 with tags, fused parts or gaps): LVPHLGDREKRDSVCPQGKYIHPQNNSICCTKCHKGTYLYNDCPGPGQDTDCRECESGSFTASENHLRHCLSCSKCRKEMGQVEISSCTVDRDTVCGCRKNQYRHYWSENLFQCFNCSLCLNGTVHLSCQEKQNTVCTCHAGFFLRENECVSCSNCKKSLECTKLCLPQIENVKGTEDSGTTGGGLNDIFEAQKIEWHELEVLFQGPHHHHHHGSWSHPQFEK
Method in brief: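 Readout is the 665/615 nm TR-FRET ratio (Eu anti-His donor, streptavidin-Alexa647 acceptor), normalized to DMSO and saturating displacer, fit by Morrison-based five-parameter logistic for Kd^app. His-tagged sTNFR1 (1-211) prebound to 100 nM biotinylated peptide SEQ ID NO.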

Compound | IC50 [1] [nM] | Kd [2] [nM] | IC50 [2] [nM]
CCCC[C@@H]1NC(=O)[C@@H]2CC[C@@H](C2)NC(=O)[C@H]([C@@H](C)c2c[nH]c3c(OC)cccc23)NC(=O)CN(C)C(=O)[C@H](Cc2ccc(C(N)=O)cc2)NC(=O)[C@H](Cc2ccc(S(N)(=O)=O)cc2)NC(=O)[C@](C)(CO)NC(=O)[C@H](Cc2c[nH]c3c(C#N)cccc23)NC(=O)[C@H](Cc2ccc(C(=O)O)cc2)NC(=O)[C@H](CC(N)=O)NC(=O)[C@H]2C[C@H](OCC[N+](C)(C)C)CN2C(=O)[C@H](Cc2cn(CC(=O)O)c3ccccc23)NC(=O)[C@@H]2CC[C@@H](O)CN2C(=O)[C@H](Cc2ccncc2)NC1=O [SEQ ID NO. 136] (cyclo([4Pal][Pip(5R-OH)][Trp(1-CH2COOH)][dHyp](Ethyl(2-NMe3+))N[Phe(4-COOH)][Trp(7-CN)][αMeS][Phe(4-SO2NH2)][Phe(4-CONH2)][Sar][Trp(βS-Me,7-OMe)][X1][Nle])) | 0.4 | 0.07 | 
CCCC[C@@H]1NC(=O)[C@@H]2CC[C@@H](C2)NC(=O)[C@H]([C@@H](C)c2c[nH]c3c(OC)cccc23)NC(=O)CN(C)C(=O)[C@H](Cc2ccc(O)cc2)NC(=O)[C@H](Cc2ccc(C(N)=O)cc2)NC(=O)[C@](C)(CO)NC(=O)[C@H](Cc2c[nH]c3c(Cl)cccc23)NC(=O)[C@H](Cc2ccc(OCCN)cc2)NC(=O)[C@H](CC(N)=O)NC(=O)[C@H](CCC(=O)O)N(C)C(=O)[C@H](Cc2c[nH]c3ccccc23)NC(=O)[C@@H]2CC[C@@H](O)CN2C(=O)[C@H](Cc2ccncc2)NC1=O [SEQ ID NO. 145] (cyclo([4Pal][Pip(5R-OH)]W[NMeE]N[AEF][Trp(7-Cl)][αMeS][Phe(4-CONH2)]Y[Sar][Trp(βS-Me,7-OMe)][X1][Nle])) | 0.8 | 0.18 | 
CCCC[C@@H]1NC(=O)[C@@H]2CC[C@@H](C2)NC(=O)[C@H]([C@@H](C)c2c[nH]c3c(OC)cccc23)NC(=O)CN(C)C(=O)[C@H](Cc2c[nH]cn2)NC(=O)[C@H](Cc2ccc(C(=O)O)cc2)NC(=O)[C@](C)(CO)NC(=O)[C@H](Cc2c[nH]c3c(Cl)cccc23)NC(=O)[C@H](Cc2ccncc2)NC(=O)[C@H](CC(N)=O)NC(=O)[C@H](CCC(=O)O)N(C)C(=O)[C@H](Cc2c[nH]c3ccccc23)NC(=O)[C@@H]2CNCCN2C(=O)[C@H](Cc2ccncc2)NC1=O [SEQ ID NO. 178] (cyclo([4Pal][Trp(7-Cl)][αMeS][Phe(4-COOH)]H[Sar][Trp(βS-Me,7-OMe)][X1][Nle][4Pal][Pip(4-aza)]W[NMeE]N)) | 3.3 | 0.29 | 
CCCC[C@@H]1NC(=O)[C@@H]2CC[C@@H](C2)NC(=O)[C@H]([C@@H](C)c2c[nH]c3c(OC)cccc23)NC(=O)CN(C)C(=O)[C@H](Cc2ccc(OCC(=O)O)cc2)NC(=O)[C@H](Cc2ccc(C(N)=O)cc2)NC(=O)[C@](C)(CO)NC(=O)[C@H](Cc2c[nH]c3c(C#N)cccc23)NC(=O)[C@H](Cc2ccc(OCC(=O)O)cc2)NC(=O)[C@H](CC(N)=O)NC(=O)[C@H]2C[C@H](O)CN2C(=O)[C@H](Cc2c[nH]c3ccccc23)NC(=O)[C@@H]2CC[C@@H](O)CN2C(=O)[C@H](Cc2ccncc2)NC1=O [SEQ ID NO. 285] (cyclo([4Pal][Pip(5R-OH)]W[dHyp]NY(Carboxymethyl)[Trp(7-CN)][αMeS][Phe(4-CONH2)]Y(Carboxymethyl)[Sar][Trp(βS-Me,7-OMe)][X1][Nle])) | 0.6 | 0.04 | 
CCCC[C@@H]1NC(=O)CSC[C@@H](C(N)=O)NC(=O)[C@H]([C@@H](C)c2c[nH]c3c(OC)cccc23)NC(=O)CN(C)C(=O)[C@H](Cc2ccc(O)cc2)NC(=O)[C@H](Cc2ccc(C(=O)O)cc2)NC(=O)[C@](C)(CO)NC(=O)[C@H](Cc2c[nH]c3c(Cl)cccc23)NC(=O)[C@H]([C@@H](C)c2ccncc2)NC(=O)[C@H](CC(N)=O)NC(=O)[C@H](CCC(=O)O)N(C)C(=O)[C@H](Cc2c[nH]c3ccccc23)NC(=O)[C@H](CO)NC(=O)[C@H](Cc2ccc(CN)cc2)NC1=O [SEQ ID NO. 252] ({CH2CO}-[Nle][Phe(4-CH2NH2)]SW[NMeE]N[4Pal(3S-Me)][Trp(7-Cl)][αMeS][Phe(4-COOH)]Y[Sar][Trp(βS-Me,7-OMe)]C-NH2; thioether N-14) | 23.3 |  | 2.39
CCCC[C@@H]1NC(=O)[C@@H]2CC[C@@H](C2)NC(=O)[C@H]([C@@H](C)c2c[nH]c3c(OC)cccc23)NC(=O)CN(C)C(=O)[C@H](Cc2ccc(OCC(=O)O)cc2)NC(=O)[C@H](Cc2ccc(S(N)(=O)=O)cc2)NC(=O)[C@](C)(CO)NC(=O)[C@H](Cc2c[nH]c3c(C#N)cccc23)NC(=O)[C@H](Cc2ccncc2)NC(=O)[C@H](CC(N)=O)NC(=O)[C@H]2C[C@H](OCC(=O)O)CN2C(=O)[C@H](Cc2cn(CC(=O)O)c3ncccc23)NC(=O)[C@@H]2CC[C@@H](O)CN2C(=O)[C@H](Cc2ccncc2)NC1=O [SEQ ID NO. 115] (cyclo([4Pal][Trp(7-CN)][αMeS][Phe(4-SO2NH2)]Y(Carboxymethyl)[Sar][Trp(βS-Me,7-OMe)][X1][Nle][4Pal][Pip(5R-OH)][Trp(7-aza,1-CH2COOH)][dHyp](Carboxymethyl)N)) | 1.4 | 0.19 | 
CCCC[C@@H]1NC(=O)CSC[C@@H](C(N)=O)NC(=O)[C@H]([C@@H](C)c2c[nH]c3c(OC)cccc23)NC(=O)CN(C)C(=O)[C@H](Cc2ccc(O)cc2)NC(=O)[C@H](Cc2ccc(C(N)=O)cc2)NC(=O)[C@](C)(CO)NC(=O)[C@H](Cc2c[nH]c3c(Cl)cccc23)NC(=O)[C@H](Cc2ccc(C(=O)O)cc2)NC(=O)[C@H](CC(N)=O)NC(=O)[C@H]2C[C@H](O)CN2C(=O)[C@H](Cc2c[nH]c3ccccc23)NC(=O)[C@@H]2CC[C@@H](O)CN2C(=O)[C@H](Cc2ccncc2)NC1=O [SEQ ID NO. 185] ({CH2CO}-[Nle][4Pal][Pip(5R-OH)]W[dHyp]N[Phe(4-COOH)][Trp(7-Cl)][αMeS][Phe(4-CONH2)]Y[Sar][Trp(βS-Me,7-OMe)]C-NH2; thioether N-14) | 0.9 | 0.16 | 0.2
CCCC[C@@H]1NC(=O)[C@@H]2CC[C@@H](C2)NC(=O)[C@H]([C@@H](C)c2c[nH]c3c(OC)cccc23)NC(=O)CN(C)C(=O)[C@H](Cc2ccc(O)cc2)NC(=O)[C@H](Cc2ccc(C(=O)O)cc2)NC(=O)[C@](C)(CO)NC(=O)[C@H](Cc2c[nH]c3c(Cl)cccc23)NC(=O)[C@H](Cc2ccncc2)NC(=O)[C@H](CC(N)=O)NC(=O)[C@H](CCC(=O)O)N(C)C(=O)[C@H](Cc2c[nH]c3ccccc23)NC(=O)[C@@H]2CNCCN2C(=O)[C@H](Cc2ccc(OC)nc2)NC1=O [SEQ ID NO. 241] (cyclo([4Pal][Trp(7-Cl)][αMeS][Phe(4-COOH)]Y[Sar][Trp(βS-Me,7-OMe)][X1][Nle][3Pal(6-OMe)][Pip(4-aza)]W[NMeE]N)) | 1.4 | 0.24 | 
CCCC[C@@H]1NC(=O)[C@@H]2CC[C@@H](C2)NC(=O)[C@H]([C@@H](C)c2c[nH]c3c(OC)cccc23)NC(=O)CN(C)C(=O)[C@H](Cc2ccc(C(N)=O)cc2)NC(=O)[C@H](Cc2ccc(C(N)=O)cc2)NC(=O)[C@](C)(CO)NC(=O)[C@H](Cc2c[nH]c3c(C#N)cccc23)NC(=O)[C@H]([C@H](O)c2ccncc2)NC(=O)[C@H](CC(N)=O)NC(=O)[C@H]2C[C@H](OCC(=O)O)CN2C(=O)[C@H](Cc2cn(CC(=O)O)c3ccccc23)NC(=O)[C@@H]2CC[C@@H](O)CN2C(=O)[C@H](Cc2ccncc2)NC1=O [SEQ ID NO. 129] (cyclo([4Pal][Pip(5R-OH)][Trp(1-CH2COOH)][dHyp](Carboxymethyl)N[X30][Trp(7-CN)][αMeS][Phe(4-CONH2)][Phe(4-CONH2)][Sar][Trp(βS-Me,7-OMe)][X1][Nle])) | 3.1 | 0.48 | 
COc1cccc2c([C@H](C)[C@@H]3NC(=O)CN(C)C(=O)[C@H](Cc4ccc(O)cc4)NC(=O)[C@H](Cc4ccc(C(=O)O)cc4)NC(=O)[C@](C)(CO)NC(=O)[C@H](Cc4c[nH]c5c(Cl)cccc45)NC(=O)[C@H](Cc4ccncc4)NC(=O)[C@H](CC(N)=O)NC(=O)[C@H](CCC(=O)O)N(C)C(=O)[C@H](Cc4c[nH]c5ccccc45)NC(=O)[C@H](CO)N(C)C(=O)[C@H](Cc4ccncc4)NC(=O)[C@H](CCC(=O)Nc4cccnc4)NC(=O)[C@@H]4CC[C@@H](C4)NC3=O)c[nH]c12 [SEQ ID NO. 166] (cyclo([4Pal][NMeS]W[NMeE]N[4Pal][Trp(7-Cl)][αMeS][Phe(4-COOH)]Y[Sar][Trp(βS-Me,7-OMe)][X1]E(X37))) | 2.7 | 0.44 | 0.5
